Data published in patent US11026989B2, “Composition for treating erectile dysfunction by Orchis anatolica extract” (Jordan University of Science and Technology, priority 2016, dated 2021).

System: penile tissue (corpus cavernosum strips)
Experiment: In vitro relaxation of penile tissue strips in physiological organ bath after induced contraction
Parameters: species or system New Zealand rabbit and albino rats
From the text: A water-jacketed physiological organ bath provides a stable and adjustable way of organ stability and temperature control. Substrates and other nutrients that are required to sustain tissue function were provided via a physiological solution (e.g., Krebs solution). This will allowed the study of evoked tissue responses to pharmacological agents and/or electrical stimulation.
Penile tissues from a mature New Zealand rabbit (e.g., 3-3.5 kg) and albino rats (e.g., 300-350 g) were dissected out and cleaned of the outer adherent connective tissue, and the two corpora cavernosa integral tissues were obtained. Each corpus cavernosum was cut lengthwise into 4 pieces measuring about 2 mm thick and 10-12 mm long out of which a 7-8 mm long piece was taken from the middle part of each strip by removing the two unwanted edges of these strips. The strips were kept in a well oxygenated Krebs solution, pre-cooled to 4° C., and placed in a refrigerator until the initiation of the experiment.
Each erectile tissue (“ET”) was mounted by clipping both of its ends within the bath. An ET strip was hooked to one clip end, which was tied to a metal wire (e.g., mounting hook), which was fixed to a bottom of a water-jacketed chamber. The top end of the strip was clipped to a cotton thread and connected to a lever (e.g., arm), which was connected to a Harvard isotonic transducer. The former was connected to a Harvard Universal Oscillograph for recording the force of contraction to an isotonic transducer. The tissue strip was stretched against a fixed caliber weight of 2 gm attached to the lever of the isotonic transducer. The free movable lever end was horizontally adjusted receptive to any movement according to the contraction and relaxation of the ET within the path when stimulated. Before each experiment, the transducer was calibrated two times against this caliber weight. The bath into which the tissue was mounted contained 25 ml of oxygenated Krebs solution with continuous oxygenation (gas mixture of 95% O2 and 5% CO2 and at 37° C.) and left for 60 minutes before starting the experiment.
Certain specifications for collection of Orchis anatolica plants were adopted so that the intact roots together with the potato-shaped bulb parts were collected and preserved intact. Bulbs were detached from roots and left to dry at air temperature, and then separated into two categories: a large rounded sized bulb resembling the small sized potato (male bulb) and an elongated small sized bulb (female or feeding bulb). The round potato shaped bulb was chopped and grinded using an electrical grinder until a powder was obtained. Each 500 g of dried and grinded orchis roots was then refluxed in (2 L) 70% ethanol at 50° C. for 36 hours in a continuous extraction (soxhlet) apparatus. Ethanol extract was filtered and concentrated under reduced pressure at 50° C. using a rotary evaporator. Red Korean Panax Ginseng was obtained from a South Korea market as a concentrated powder vacuumed and sealed in metal container packages of 50 g (commercially obtained from KOREAEXPORT CO LTD). Powder was dissolved well in distilled water from which different concentrations were used. Different doses of both Orchis anatolica extract and Red Korean Panax Ginseng were used to obtain and determine the maximum effect of ET response.
A 1 liter Krebs stock solution was prepared the day before the experiment containing the following chemicals: NaCl (125 mM), NaHCO3 (20 mM), KCl (4 mM), NaH2PO4 (1.8 mM), MgSO4 (1.8 mM), CaCl2 (1.8 mM), glucose (10 mM), and HEPES buffer (10 mM) (see Table 1). For a final 1 liter Krebs solution, 725 ml ringer and […] Deionized water were added. The solution pH was set to 7.4 after gassing with 95% O2/5% CO2 for 30 minutes before it was used. Krebs solutions were freshly prepared on each experimental day from the stock solutions stored in the refrigerator. […]

| SMILES | Time dependent penile tissue contraction (−) and relaxation (+) response to treatment (5 minutes, 0.0509 gm stock solution) | Time dependent penile tissue contraction (−) and relaxation (+) response to treatment (10 minutes, 0.0509 gm stock solution) | Time dependent penile tissue contraction (−) and relaxation (+) response to treatment (15 minutes, 0.0509 gm stock solution) | Time dependent penile tissue contraction (−) and relaxation (+) response to treatment (20 minutes, 0.0509 gm stock solution) | Time dependent penile tissue contraction (−) and relaxation (+) response to treatment (25 minutes, 0.0509 gm stock solution) | Time dependent penile tissue contraction (−) and relaxation (+) response to treatment (5 minutes, 0.002 g/50 ml Krebs, after phenylephrine contraction) | Time dependent penile tissue contraction (−) and relaxation (+) response to treatment (15 minutes, 0.002 g/50 ml Krebs, after phenylephrine contraction) | Time dependent penile tissue contraction (−) and relaxation (+) response to treatment (25 minutes, 0.002 g/50 ml Krebs, after phenylephrine contraction) |
| --- | --- | --- | --- | --- | --- | --- | --- | --- |
| CNC[C@H](O)c1cccc(O)c1 [L-Phenylephrine] | −6.8%^ | −8.2%^ | −9.5%^ | −10% | −10% |  |  |  |
| CCCc1nn(C)c2c(=O)[nH]c(-c3cc(S(=O)(=O)N4CCN(C)CC4)ccc3OCC)nc12 [Sildenafil] |  |  |  |  |  | 11% | 12% | 24% |
